Measurements reported in article PMC10233829 (ACS Omega, 2023).
Values after ≈ are worked out from the molar mass of the structure shown.

Assays:
S. aureus NCTC 4163 = experiment: MIC, twofold microdilution, standard strain; assay type: cell-based; details: Staphylococcus aureus, NCTC4163, 18 h
S. aureus ATCC 25923 = experiment: MIC, twofold microdilution, standard strain; assay type: cell-based; details: Staphylococcus aureus, ATCC25923, 18 h
S. aureus ATCC 6538 = experiment: MIC, twofold microdilution, standard strain; assay type: cell-based, Staphylococcus aureus; details: for MIC: Staphylococcus aureus, ATCC6538, standard strain, 18 h; for MIC used in biofilm eradication assay, S. aureus 6538: Table S1, MIC
S. aureus ATCC 29213 = experiment: MIC, twofold microdilution, standard strain; assay type: cell-based; details: Staphylococcus aureus, ATCC29213, 18 h
[1] = tested on: S. epidermidis ATCC 12228; experiment: MIC, twofold microdilution, standard strain; assay type: cell-based; details: Staphylococcus epidermidis, ATCC12228, 18 h
[2] = tested on: S. epidermidis ATCC 35984; experiment: MIC, twofold microdilution, standard strain; assay type: cell-based; details: Staphylococcus epidermidis, ATCC35984, 18 h
P. aeruginosa ATCC 15442 = experiment: MIC, twofold microdilution, standard strain; assay type: cell-based, Pseudomonas aeruginosa; details: for MIC: Pseudomonas aeruginosa, ATCC15442, standard strain, 18 h; for MIC used in biofilm eradication assay, P. aeruginosa 15442: Table S1, MIC
E. coli ATCC 25922 = experiment: MIC, twofold microdilution, standard strain; assay type: cell-based, Escherichia coli; details: for MIC: Escherichia coli, ATCC25922, standard strain, 18 h; for MIC used in biofilm eradication assay, E. coli ATCC 25922: Table S1, MIC
S. aureus 180 = experiment: MIC, twofold microdilution, clinical strain; assay type: cell-based; details: Staphylococcus aureus, 18 h
S. aureus 5595 = experiment: MIC, twofold microdilution, clinical strain; assay type: cell-based; details: Staphylococcus aureus, 18 h
S. aureus T5595 = experiment: MIC, twofold microdilution, clinical strain; assay type: cell-based, Staphylococcus aureus; details: Staphylococcus aureus, T5595, 18 h
S. aureus T5591 = experiment: MIC, twofold microdilution, clinical strain; assay type: cell-based, Staphylococcus aureus; details: Staphylococcus aureus, T5591, 18 h
S. epidermidis 4341 = experiment: MIC, twofold microdilution, clinical strain; assay type: cell-based; details: Staphylococcus epidermidis, 18 h
S. epidermidis 5253 = experiment: MIC, twofold microdilution, clinical strain; assay type: cell-based, Staphylococcus epidermidis; details: Staphylococcus epidermidis, 5253, 18 h
S. epidermidis KR4243/1 = experiment: MIC, twofold microdilution, clinical strain; assay type: cell-based; details: Staphylococcus epidermidis, 18 h
S. pasteuri KR 4358 = experiment: MIC, twofold microdilution, clinical strain; assay type: cell-based; details: Staphylococcus pasteuri, KR4358, 18 h
P. aeruginosa 37 = experiment: MIC, twofold microdilution, clinical strain; assay type: cell-based; details: Pseudomonas aeruginosa, 18 h
P. aeruginosa 659 = experiment: MIC, twofold microdilution, clinical strain; assay type: cell-based; details: Pseudomonas aeruginosa, 18 h
E. coli 951 = experiment: MIC, twofold microdilution, clinical strain; assay type: cell-based; details: Escherichia coli, 18 h
E. coli 520 = experiment: MIC, twofold microdilution, clinical strain; assay type: cell-based; details: Escherichia coli, 18 h
E. coli 600 = experiment: MIC, twofold microdilution, clinical strain; assay type: cell-based, Escherichia coli; details: Escherichia coli, 600, 18 h
E. cloacae 8 = experiment: MIC, twofold microdilution, clinical strain; assay type: cell-based, Escherichia cloacae; details: Enterobacter cloacae, 8; clinical strain, 18 h
K. pneumoniae 28 = experiment: MIC, twofold microdilution, clinical strain; assay type: cell-based; details: Klebsiella pneumoniae, 18 h
K. pneumoniae 510 = experiment: MIC, twofold microdilution, clinical strain; assay type: cell-based, Klebsiella pneumoniae; details: for share of the reference (CP) activity: Klebsiella pneumoniae rods; for MIC: Klebsiella pneumoniae, 510, clinical strain, 18 h
M. tuberculosis H37Rv = experiment: Tuberculostatic activity, Microplate Alamar Blue Assay (MIC); assay type: cell-based, Mycobacterium tuberculosis; details: Mycobacterium tuberculosis, H37RV; MABA; read-out: MIC M. tuberculosis H37Rv
[3] = tested on: M. tuberculosis Spec. 192; experiment: as above; assay type: cell-based; details: Mycobacterium tuberculosis, MABA, read-out: MIC M. tuberculosis Spec. 192 (sensitive to tuberculostatics)
PC3 cells = experiment: MTT assay, cytotoxic activity; assay type: cell-based, human; details: for IC50: Homo sapiens, PC-3, 72 h, MTT, 72 h
Method in brief: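 Cytotoxicity readout: relative MTT level (%), i.e. absorbance of compound-treated PC3 cells divided by that of untreated controls, ×100. Cultures were kept in a humidified 37 °C, 5% CO2 incubator.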

[4] = MTT assay, cytotoxic activity; assay type: cell-based; details: human, HaCaT cells (immortal keratinocytes); MTT, 72 h, normal cell line; read-out: IC50 HaCaT
Method in brief: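 Viability was calculated as A/B × 100%, with A the absorbance of treated samples and B that of untreated controls, from MTT reduction. Cells were cultured in a humidified 37 °C/5% CO2 incubator.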

[5] = tested on: clinical bacterial strains; experiment: MIC, clinical isolates as groups of strains; assay type: cell-based; details: S. aureus 180 and 5595

## O=C(O)c1cn(C2CC2)c2cc(N3CCN(C(=O)CCCBr)CC3)c(F)cc2c1=O [Compound 10, 7-[4-(4-Bromobutyryl)-piperazin-1-yl]-1-cyclopropyl-6-fluoro-4-oxo-1,4-dihydro-quinoline-3-carboxylic Acid]
S. aureus NCTC 4163
  MIC: 0.2 µg/mL (≈ 0.416 µM)
S. aureus ATCC 25923
  MIC: 0.4 µg/mL (≈ 0.833 µM)
S. aureus ATCC 6538
  MIC: 0.2 µg/mL (≈ 0.416 µM)
  MIC used in biofilm eradication assay, S. aureus 6538: 0.200 µg/mL (≈ 0.416 µM)
S. aureus ATCC 29213
  MIC: 0.4 µg/mL (≈ 0.833 µM)
[1]
  MIC: 0.2 µg/mL (≈ 0.416 µM)
[2]
  MIC: 0.1 µg/mL (≈ 0.208 µM)
P. aeruginosa ATCC 15442
  MIC: 0.1 µg/mL (≈ 0.208 µM)
  MIC used in biofilm eradication assay, P. aeruginosa 15442: 0.100 µg/mL (≈ 0.208 µM)
E. coli ATCC 25922
  MIC: 0.025 µg/mL (≈ 0.052 µM)
  MIC used in biofilm eradication assay, E. coli ATCC 25922: 0.025 µg/mL (≈ 0.052 µM)
S. aureus 180
  MIC: 0.8 µg/mL (≈ 1.67 µM)
S. aureus 5595
  MIC: 0.8 µg/mL (≈ 1.67 µM)
S. aureus T5595
  MIC: 0.8 µg/mL (≈ 1.67 µM)
S. aureus T5591
  MIC: 0.8 µg/mL (≈ 1.67 µM)
S. epidermidis 4341
  MIC: 25.6 µg/mL (≈ 53.3 µM)
S. epidermidis 5253
  MIC: > 25.6 µg/mL
S. epidermidis KR4243/1
  MIC: 0.4 µg/mL (≈ 0.833 µM)
S. pasteuri KR 4358
  MIC: 0.2 µg/mL (≈ 0.416 µM)
P. aeruginosa 37
  MIC: 0.8 µg/mL (≈ 1.67 µM)
P. aeruginosa 659
  MIC: 0.8 µg/mL (≈ 1.67 µM)
E. coli 951
  MIC: 0.4 µg/mL (≈ 0.833 µM)
E. coli 520
  MIC: 0.1 µg/mL (≈ 0.208 µM)
E. coli 600
  MIC: 0.05 µg/mL (≈ 0.104 µM)
E. cloacae 8
  MIC: 0.05 µg/mL (≈ 0.104 µM)
K. pneumoniae 28
  MIC: > 25.6 µg/mL
K. pneumoniae 510
  share of the reference (CP) activity: 62.5%
  MIC: 6.4 µg/mL (≈ 13.3 µM)
M. tuberculosis H37Rv
  MIC: 1 µg/mL (≈ 2.08 µM)
[3]
  MIC: 0.5 µg/mL (≈ 1.04 µM)
PC3 cells
  IC50: 84.1 ± 7.3 µM
[4]
  IC50 at 72 h: 89.1 ± 2.1 µM
[5]
  share of CP inhibitory activity: 62.5%

## O=C(O)c1cn(C2CC2)c2cc(N3CCN(C(=O)CCCCBr)CC3)c(F)cc2c1=O [Compound 11, 7-[4-(5-Bromopentanoyl)-piperazin-1-yl]-1-cyclopropyl-6-fluoro-4-oxo-1,4-dihydro-quinoline-3-carboxylic Acid]
S. aureus NCTC 4163
  MIC: 0.1 µg/mL (≈ 0.202 µM)
S. aureus ATCC 25923
  MIC: 0.4 µg/mL (≈ 0.809 µM)
S. aureus ATCC 6538
  MIC: 0.1 µg/mL (≈ 0.202 µM)
  MIC used in biofilm eradication assay, S. aureus 6538: 0.100 µg/mL (≈ 0.202 µM)
S. aureus ATCC 29213
  MIC: 0.2 µg/mL (≈ 0.405 µM)
[1]
  MIC: 0.1 µg/mL (≈ 0.202 µM)
[2]
  MIC: 0.1 µg/mL (≈ 0.202 µM)
P. aeruginosa ATCC 15442
  MIC: 0.1 µg/mL (≈ 0.202 µM)
  MIC used in biofilm eradication assay, P. aeruginosa 15442: 0.100 µg/mL (≈ 0.202 µM)
E. coli ATCC 25922
  MIC: 0.025 µg/mL (≈ 0.0506 µM)
  MIC used in biofilm eradication assay, E. coli ATCC 25922: 0.025 µg/mL (≈ 0.0506 µM)
S. aureus 180
  MIC: 0.8 µg/mL (≈ 1.62 µM)
S. aureus 5595
  MIC: 0.8 µg/mL (≈ 1.62 µM)
S. aureus T5595
  MIC: 0.8 µg/mL (≈ 1.62 µM)
S. aureus T5591
  MIC: 0.8 µg/mL (≈ 1.62 µM)
S. epidermidis 4341
  MIC: 25.6 µg/mL (≈ 51.8 µM)
S. epidermidis 5253
  MIC: > 25.6 µg/mL
S. epidermidis KR4243/1
  MIC: 0.4 µg/mL (≈ 0.809 µM)
S. pasteuri KR 4358
  MIC: 0.2 µg/mL (≈ 0.405 µM)
P. aeruginosa 37
  MIC: 0.8 µg/mL (≈ 1.62 µM)
P. aeruginosa 659
  MIC: 0.8 µg/mL (≈ 1.62 µM)
E. coli 951
  MIC: 0.4 µg/mL (≈ 0.809 µM)
E. coli 520
  MIC: 0.1 µg/mL (≈ 0.202 µM)
E. coli 600
  MIC: 0.05 µg/mL (≈ 0.101 µM)
E. cloacae 8
  MIC: 0.05 µg/mL (≈ 0.101 µM)
K. pneumoniae 28
  MIC: > 25.6 µg/mL
K. pneumoniae 510
  share of the reference (CP) activity: 62.5%
  MIC: 6.4 µg/mL (≈ 12.9 µM)
M. tuberculosis H37Rv
  MIC: 0.5 µg/mL (≈ 1.01 µM)
[3]
  MIC: 0.5 µg/mL (≈ 1.01 µM)
PC3 cells
  IC50: 81.7 ± 8.9 µM
[4]
  IC50 at 72 h: 80.1 ± 8.1 µM
[5]
  share of CP inhibitory activity: 62.5%

## O=C(O)c1cn(C2CC2)c2cc(N3CCN(CCCCCCCCCCC(=O)N4CCN(c5cc6c(cc5F)c(=O)c(C(=O)O)cn6C5CC5)CC4)CC3)c(F)cc2c1=O [Compound 21, CP–Undecanoyl–CP Dimer]
S. aureus NCTC 4163
  MIC: 12.8 µg/mL (≈ 15.4 µM)
S. aureus ATCC 25923
  MIC: 12.8 µg/mL (≈ 15.4 µM)
S. aureus ATCC 6538
  MIC: 12.8 µg/mL (≈ 15.4 µM)
S. aureus ATCC 29213
  MIC: 12.8 µg/mL (≈ 15.4 µM)
[1]
  MIC: 25.6 µg/mL (≈ 30.9 µM)
[2]
  MIC: 12.8 µg/mL (≈ 15.4 µM)
P. aeruginosa ATCC 15442
  MIC: > 25.6 µg/mL
E. coli ATCC 25922
  MIC: 25.6 µg/mL (≈ 30.9 µM)
S. aureus 180
  MIC: > 25.6 µg/mL
S. aureus 5595
  MIC: > 25.6 µg/mL
S. aureus T5595
  MIC: > 25.6 µg/mL
S. aureus T5591
  MIC: > 25.6 µg/mL
S. epidermidis 4341
  MIC: > 25.6 µg/mL
S. epidermidis 5253
  MIC: > 25.6 µg/mL
S. epidermidis KR4243/1
  MIC: > 25.6 µg/mL
S. pasteuri KR 4358
  MIC: > 25.6 µg/mL
P. aeruginosa 37
  MIC: > 25.6 µg/mL
P. aeruginosa 659
  MIC: > 25.6 µg/mL
E. coli 951
  MIC: > 25.6 µg/mL
E. coli 520
  MIC: > 25.6 µg/mL
E. coli 600
  MIC: > 25.6 µg/mL
E. cloacae 8
  MIC: > 25.6 µg/mL
K. pneumoniae 28
  MIC: > 25.6 µg/mL
K. pneumoniae 510
  MIC: > 25.6 µg/mL
M. tuberculosis H37Rv
  MIC: 2 µg/mL (≈ 2.41 µM)
[3]
  MIC: 2 µg/mL (≈ 2.41 µM)
PC3 cells
  IC50: 4.8 ± 0.1 µM
PC3 cells; PC3
  fold stronger cytotoxic properties than cisplatin: 2.75 fold
[4]
  IC50 at 72 h: 73.2 ± 10.1 µM
